{"source": "patent US6333311A", "about": "“Useful properties of human lactoferrin and variants thereof” (Pharming, priority 1998, dated 2001)", "key": {"[1]": {"molecular_target": "T1, human lactoferrin, natural hLF (purified from human milk, 3.5% saturated with iron) (Homo sapiens, UniProt P02788)", "T1 construct": "Human LF was purified from fresh human milk by cation-exchange chromatography; from tissue; host or cells: fresh human milk", "T1 sequence (P02788 with tags, fused parts or gaps limits assumed)": "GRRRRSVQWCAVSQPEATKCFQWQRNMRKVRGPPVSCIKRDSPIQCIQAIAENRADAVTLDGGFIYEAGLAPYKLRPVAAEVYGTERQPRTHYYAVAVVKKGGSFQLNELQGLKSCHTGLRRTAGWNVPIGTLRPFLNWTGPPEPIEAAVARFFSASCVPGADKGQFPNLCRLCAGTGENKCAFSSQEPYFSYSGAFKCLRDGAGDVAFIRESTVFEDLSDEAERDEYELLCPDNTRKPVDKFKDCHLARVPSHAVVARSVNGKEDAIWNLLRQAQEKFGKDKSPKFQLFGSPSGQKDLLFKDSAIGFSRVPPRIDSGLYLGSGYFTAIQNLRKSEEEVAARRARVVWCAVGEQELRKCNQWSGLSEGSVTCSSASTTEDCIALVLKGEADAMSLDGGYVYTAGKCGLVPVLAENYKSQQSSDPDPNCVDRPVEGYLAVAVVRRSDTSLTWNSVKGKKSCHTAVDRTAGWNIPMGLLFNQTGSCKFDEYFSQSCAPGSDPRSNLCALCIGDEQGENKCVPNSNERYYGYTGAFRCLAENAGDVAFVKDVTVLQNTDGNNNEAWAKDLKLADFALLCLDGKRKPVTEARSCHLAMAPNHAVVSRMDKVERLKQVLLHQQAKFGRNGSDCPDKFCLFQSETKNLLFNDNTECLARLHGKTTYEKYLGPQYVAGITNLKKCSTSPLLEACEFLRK", "experiment": "Competitive inhibition of hLF binding to solid-phase lipid A, competitor natural hLF", "settings": "concentration of unlabelled natural hLF giving 50% inhibition of the response of 12.5 nM biotinylated hLF on immobilized lipid A; mean ± SD of at least 4 experiments"}, "[2]": {"molecular_target": "T2, human lactoferrin, iron-saturated hLF (Homo sapiens, UniProt P02788)", "T2 construct": "Human LF was purified from fresh human milk by cation-exchange chromatography; from tissue; host or cells: fresh human milk", "T2 sequence (P02788 with tags, fused parts or gaps limits assumed)": "as above", "experiment": "Competitive inhibition of hLF binding to solid-phase lipid A, competitor iron-saturated hLF", "settings": "concentration of unlabelled iron-saturated hLF giving 50% inhibition of the response of 12.5 nM biotinylated hLF on immobilized lipid A; mean ± SD of at least 4 experiments"}, "human transferrin (hTF)": {"molecular_target": "human transferrin (hTF) (Homo sapiens, UniProt P02787)", "sequence (P02787 20-698)": "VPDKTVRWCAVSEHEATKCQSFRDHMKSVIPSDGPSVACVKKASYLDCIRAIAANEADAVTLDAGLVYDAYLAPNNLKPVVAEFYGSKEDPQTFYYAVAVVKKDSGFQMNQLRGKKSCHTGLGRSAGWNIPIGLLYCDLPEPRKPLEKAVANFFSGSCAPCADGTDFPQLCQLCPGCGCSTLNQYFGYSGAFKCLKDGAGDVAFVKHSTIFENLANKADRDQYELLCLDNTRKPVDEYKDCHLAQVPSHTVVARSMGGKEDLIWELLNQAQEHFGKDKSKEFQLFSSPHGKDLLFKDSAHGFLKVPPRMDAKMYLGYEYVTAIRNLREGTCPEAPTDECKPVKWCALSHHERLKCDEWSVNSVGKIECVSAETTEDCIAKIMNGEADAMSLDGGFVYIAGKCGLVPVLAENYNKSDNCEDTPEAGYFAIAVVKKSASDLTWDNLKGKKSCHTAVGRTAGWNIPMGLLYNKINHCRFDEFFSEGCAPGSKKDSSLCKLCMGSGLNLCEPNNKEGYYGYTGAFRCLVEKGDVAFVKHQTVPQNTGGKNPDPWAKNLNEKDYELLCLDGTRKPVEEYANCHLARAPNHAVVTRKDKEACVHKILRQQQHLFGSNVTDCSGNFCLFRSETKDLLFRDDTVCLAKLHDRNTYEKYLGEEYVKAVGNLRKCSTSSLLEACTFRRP", "experiment": "Competitive inhibition of hLF binding to solid-phase lipid A, competitor hTF", "settings": "hTF as competitor of 12.5 nM biotinylated hLF binding to immobilized lipid A"}}, "data": [{"substance": "Lipid A", "values": [{"measurement": "IC50", "setting": "[1]", "value": "1.7 ± 0.5", "unit": "nM"}, {"measurement": "IC50", "setting": "[2]", "value": "1.3 ± 0.4", "unit": "nM"}, {"measurement": "IC50 Competitor, hTF", "setting": "human transferrin (hTF)", "value": "no competition"}]}]}
